Article PMC9953468, “In Silico, In Vitro, and Ex Vivo Biological Activity of Some Novel Mebeverine Precursors” (Biomedicines, 2023)
“Also recorded” adds a separate entry of the source. Like-named read-outs stand apart in the source and are kept apart here. Marks after values point to notes of the source that are not given here.

What was measured:
MTT cell viability assay [1] = assay type: cell-based, human; conditions: human, ± SD, read-out: In vitro cytotoxicity (IC50)
Method: (§1) In order to evaluate the in vitro biocompatibility of the experimental compounds, a series of cell viability assays were performed against human malignant leukemic cell lines (LAMA-84, K-562) as well as normal murine fibroblast cells (CCL-1). All cell lines were purchased from the German Collection of Microorganisms and Cell Cultures (DSMZ GmbH, Braunschweig, Germany). Cell cultures were cultivated in a growth medium RPMI 1640 supplemented with 10% fetal bovine serum (FBS), 5% L-glutamine, and incubated under standard conditions of 37 °C and 5% humidified CO2 atmosphere.
(§2) The experimental design involved a number of cytotoxicity assays that measured cell growth inhibition by the newly synthesized compounds. Cell viability was evaluated using a standard MTT-based colorimetric assay. Exponential-phased cells were harvested and seeded (100 μL/well) in 96-well plates at the appropriate density (3 × 10^5) for the suspension cultures (LAMA-84 and K-562) and 1.5 × 10^5 for the adherent one (CCL-1). Cells were treated and incubated with various concentrations of the experimental compounds in the concentration range of 400-6.25 µM. After exposure time of 72 h, a filter-sterilized MTT substrate solution (5 mg/mL in PBS) was added to each well of the culture plate. A further 1–4 h incubation allowed for the formation of purple insoluble formazan precipitates. The latter were dissolved in isopropyl alcohol solution containing 5% formic acid prior to absorbance measurement at 550 nm using a microplate reader (Labexim LMR-1). Collected absorbance values were blanked against MTT and isopropanol solution and normalized to the mean value of the untreated control (100% cell viability). Semi-logarithmic “dose–response” curves were constructed and the half-inhibitory concentrations of the screened compounds against each tested cell line were calculated. Values of p ≤ 0.05 were considered statistically significant.

MTT cell viability assay [2] = assay type: cell-based; conditions: mouse, CCL-1, normal murine fibroblast cells, read-out: In vitro cytotoxicity (IC50)
Method: as §1, §2

[3] = tested on: SM preparations from the corpus gastric muscle; test: Ex vivo bioelectrical activity of smooth muscle preparations, single sucrose gap method; parameters: species or system Wistar rats; conditions: 5 × 10^−5 M; for Amplitude of slow waves, Measured value / Amplitude of spike potentials, Measured value / Number of slow waves, Measured value / Number of spike potentials, Measured value: 10 min, n = 7, mean ± SEM
Method: Adult male Wistar rats weighing 280–300 g were used. Animals were housed in standard laboratory conditions (23 to 25 °C, 50–55% humidity, 12/12 h light/dark cycle), while food and water were provided ad libitum.
Circular SM preparations were dissected from the corpus gastric muscle (26–28 mm long and 0.8–0.9 mm wide; without mucosa). Two or three muscle strips were taken from the rat stomach. The number of SM preparations used for each data point is indicated by n. After dissection, the tissues must prevent loss of viability, so during the dissection, the tissues were systematically moistened with a solution (NaCl:KCl:CaCl2 in ratio 27.2:1.1:1) prepared at 4 °C.
The BEA of SM preparations was investigated by means of the single sucrose gap method with silver non-polarizable freshly chlorinated electrodes. The muscle strips were divided into 3 zones: two electrode sections were flushed with isotonic KCl solution and Krebs solution (pH 7.3), respectively, and separated by a sucrose layer of high electric resistance. Krebs contained the following (in mM): NaCl 120; KCl 5.9; CaCl2 2.5; MgCl2 1.2; NaH2PO4 1.2; NaHCO3 15.4; glucose 11.5. All the ingredients for this solution were of analytical grade and obtained from Merck (Darmstadt, Germany). Deionized water (18.2 mX/cm^2) was used thoroughly. The KCl solution is similar to the Krebs solution but with an equimolar substitution of NaCl with KCl. An isotonic sucrose solution, due to its very high specific resistance (about 10^6 Ω·cm), provides the best possible separation of the sucrose solution from the physiological solution in the “normal” pool, on the one hand, and the solution providing a zero value of the membrane potential in the pool with another recording electrode.
The inflow rate of each solution (Krebs, KCl, and isotonic sucrose solution) was controlled by a needle valve and continuously aerated with a mixture of 95% O2 and 5% CO2, and the temperature was maintained at 37 °C. A potential difference between the two end sections of the gap (control conditions) was achieved by means of silver non-polarizable, freshly chlorinated electrodes and after a 40-min period of adaptation and stabilization was accepted as the initial (control). The Krebs solution was changed several times during the adaptation period. The viability of the SM preparations was periodically tested by treatment with 1 × 10^−6 M ACh.
The membrane potential value was visualized by means of a Linseis recorder (Selb, Germany). A pair of measuring electrodes is located on both sides of the sucrose sections. The pH (pH 7.3; 37 °C) of the Krebs bathing solution was measured before each experiment by pH-meter HI5521 (Hanna Instruments Inc., Woonsocket, RI, USA). […]
The new substances were dissolved initially in dimethyl sulphoxide (DMSO) to prepare a 5 × 10^−2 M stock solution. Further dilutions were made in distilled deionized water and were applied by adding aliquots of their concentrated solutions to the tissue bath.

5-HT3 receptor = test: Immunohistochemical analysis of 5-HT3 expression in gastric SM strips; parameters: species or system Wistar rats; key to 5-HT3 expression, 5-HT / 5-HT3 expression, Response to Compound: −: absent; +: low; ++: moderate; +++: strong; conditions: for 5-HT3 expression, Response to Compound: SM preparations incubated with the compound; for 5-HT3 expression in SM preparations: immunohistochemical staining after 1 h incubation, in words
Method: […] Then, each SM strip was fixed in 10% neutral buffer formalin for 24–48 h and submitted for standard processing with hematoxylin and eosin staining.
The SM fragments from a rat’s gastric wall were fixed in a 10% neutral formalin solution and embedded in paraffin. Paraffin sections of 5 μm thickness were subjected to hematoxylin and eosin (H-E) staining for histochemical analysis.
Sections of the SM fragments from the wall of a rat’s stomach with a thickness of 5 µm were deparaffinized, then subjected to antigenic detection of the epitopes with citrate buffer, and an endogenous peroxidase blockade was made with hydrogen […] 3%, a kit was used to block the endogenous biotin, and a reagent was used to block non-specific binding (Superblock, Scy Tek, Santa Cruz Biotech. Inc. Heidelberg, Germany) follows incubate for 24 h (at 4 °C) with monoclonal mouse anti-5-HT3, next incubated with a secondary antibody: biotinylated anti-rabbit for 10 min at room temperature. The reaction was visualized with 3,3′-diaminobenzidine tetrachloride and counterstained with Mayer’s hematoxylin.
A quantitative and statistical analysis of immunohistochemical reaction using the Olympus DP-Soft image system (version 4.1 for Windows) was carried out on a Microphot-SA (Nikon, Japan) microscope equipped with a Camedia-5050 Z digital camera (Olympus, Japan). The analysis was performed on sections from the SM strips from the stomach of Wistar rats (n = 6 for each group). Five sections of the SM strips were measured, and the percentage of cells expressing 5-HT3 in the circular and longitudinal layer of SM cells, as well as in the myenteric plexus of the stomach, was determined. Each antibody was analyzed for five fields, in each of them the average number of cells with positive unit area response at ×200 magnification.

[4] = LAMA-84, CML in blast crisis (bcr-abl+)

| SMILES | IC50 at 72 h (MTT cell viability assay [1]; K-562 cells (blast phase chronic myeloid leukemia), K-562, Blast phase CML (bcr-abl+)) [µM] | IC50 at 72 h (MTT cell viability assay [1]; [4]) [µM] | IC50 at 72 h (MTT cell viability assay [2]; CCL-1 normal fibroblast cells) [µM] | Amplitude of slow waves, Measured value [3] [mV] | Amplitude of spike potentials, Measured value [3] | Number of slow waves, Measured value [3] [min⁻¹] | Number of spike potentials, Measured value [3] | effect on bioelectrical activity (slow waves, spike potentials) ([3]; in words) | 5-HT3 expression, Response to Compound (5-HT3 receptor) | 5-HT3 expression in SM preparations (5-HT3 receptor) | IC50 at 72 h (MTT cell viability assay [1]; K-562, Blast phase CML (bcr-abl+)) [µM] | IC50 at 72 h (MTT cell viability assay [2]) [µM] | Changes in the membrane potential ([3]; base activity taken as 100%, ↑ depolarization, ↓ hyperpolarization) [%] |
| --- | --- | --- | --- | --- | --- | --- | --- | --- | --- | --- | --- | --- | --- |
| CC(=O)NC(Cc1ccccc1)C(C)C (centres unmarked) [Compound 4a, N-(3-methyl-1-phenylbutan-2-yl)acetamide] | 276 ± 19.7 | 360 ± 11 | > 300 | 4.32 ± 0.38 | 0 * mV | 4.72 ± 0.55 | 0 * min^−1 | complete disappearance of the spike potentials | − | no modulation on the 5-HT3R expression; also recorded: no 5-HT3 expression observed |  |  |  |
| CC(C)C(N)Cc1ccccc1 (centres unmarked) [Compound 3, 3-Methyl-1-phenylbutan-2-amine] |  | 239 ± 18.2 |  | 5.28 ± 0.33 | 2.61 ± 0.16 mV | 4.90 ± 0.09 | 48.22 ± 0.39 * min^−1 |  | +++ | higher number of 5-HT3R positive cells per section; also recorded: increased intensity in 5-HT3 expression | 250 ± 10.5 | > 300 | 55 |
